# Tests used:
# [1] = test system: G166 human glioblastoma stem cells; assay: MTT colour viability test and phase-contrast images; format: cell-based; details: 50 μM; for proliferation and survival of human glioblastoma stem cells: phase-contrast images at 48h and MTT at 0, 24, 48 and 72h, FIGS. 5 and 6; for morphology and viability of glioblastoma stem cells (MTT assay): FIG. 1
# Experimental: The human glioblastoma stem cell line G166 was obtained from Biorep, deposited and characterised in Pollard et al., Cell Stem Cell. 4(6):568-80 (2009). The human glioblastoma stem cell line E22 was also obtained from Pollard lab (U. Edinburgh).
# In all these cases, cells were cultured in neurobasal culture medium supplemented with 2% B27, 1% N2, 20 ng/mL EGF and 20 ng/mL bFGF, in laminin-coated culture plates, to generate adherent cell cultures. Thanks to their self-renewal capacity, when these cells are expanded in adherent cultures under these culture conditions, they maintain the above-mentioned properties, i.e. the characteristic glioblastoma stem cell phenotype and genotype, including their tumourigenicity, for more than 20 passages.
# (§1) Different peptides based on the 266-283 sequence of Cx43 fused to TAT at its N-terminal end were used, all at a concentration of 50 μM, in culture medium and their effect was analysed at different treatment times. In parallel, these cells were analysed in the absence of treatment (control), in the presence of the antitumour peptide TAT-Cx43266-283 ([…]; corresponding to the peptide described in patent WO2014191608 A1 linked to the cell internalisation sequence TAT; SEQ ID NO: 35) and in the presence of the peptides without antitumour activity, TAT (YGRKKRRQRRR; SEQ ID NO: 7) and TAT-Cx43274-291 (YGRKKRRQRRR PTAPLSPMSPPGYKLVTG; SEQ ID NO: 26). For pull-down assays and visualization the peptides were fused to biotin via a C-terminal lysine.
# For this study, cells were seeded at low density and the number of viable cells was determined at different days of treatment. For this purpose, the medium was removed and the cells were incubated with 300 μL of PBS in the presence of MTT (0.5 mg/mL) for 75 minutes in the dark at 37° C. in a CO2 incubator. The medium was then removed, and 500 μL of DMSO was added. The cells were shaken in the dark for 10 minutes. Finally, absorbance was determined at 570 nm.
# [2] = test system: human glioblastoma stem cells; assay: Internalisation of biotin-fused peptides; format: cell-based; details: peptides fused to biotin
# Experimental: as §1
# albumin = albumin (Homo sapiens, UniProt P02768); assay: Albumin binding by Western blot under native or denaturing and reducing conditions; details: 2.5 μM biotinylated peptide plus 0.1% (w/v) albumin in PBS, native conditions, FIG. 8
# Experimental: FIG. 8. TAT-Cx43266-283 and TAT-Cx43266-275 bind to albumin via a cysteine dependent mechanism. TAT, TAT-Cx43274-291, TAT-Cx43266-283, TAT-Cx43266-283F/A, TAT-Cx43266-283C/A and TAT-Cx43266-275 were fused to biotin to allow their analysis by Western blot. Solutions of each peptide plus albumin in PBS were analyzed in native (N) or denaturing and reducing conditions (DR) to identify their interaction with albumin. […] Note that the sensitivity of the Ponceau staining was not enough to detect the peptide at about 10 kDa, therefore only albumin bands are shown. […] Note that TAT-Cx43266-283 and TAT-Cx43266-275 appear bound to albumin under native conditions while denaturation and reduction promoted the release of these peptides.
# Western blotting was performed as described previously (Jaraiz-Rodriguez, M. et al., Neuro-Oncology, 22, 493-504 (2020)). Briefly, 2.5 μM biotinylated peptides plus 0.1% (w/v) albumin in PBS were analysed by Western blot under native (N) or denaturing and reducing (DR) conditions. For native conditions, samples were analysed without further treatment. For denaturing and reducing conditions samples were treated with 0.1 M β-mercaptoethanol and 4% SDS and heated at 99° C. for 5 min. Samples were subjected to electrophoresis on NuPAGE Novex Bis-Tris 4-12% Midi gels (Life Technologies) at room temperature and constant voltage. Proteins were transferred to a nitrocellulose membrane (iBlot Gel Transfer Stacks Nitrocellulose) using an iBlot dry blotting system (Life Technologies). Membranes were incubated with Ponceau S staining solution for protein staining in red. After washing the membranes were blocked with 5% non-fat dry milk in PBS and then incubated with HRP-Streptavidin (1:5000; Dako P0397) for 30 minutes at room temperature. After extensive washing, the membranes were developed with a chemiluminescent substrate (Western Blotting Luminol Reagent; Santa Cruz Biotechnology) in a MicroChemi imaging system (Bioimaging Systems).
# [3] = test system: G166 human glioblastoma stem cells; assay: Migration by live cell microscope videos; format: cell-based; details: 50 μM, frames every 100 minutes, FIG. 7
# Experimental: FIG. 7. Representative images of the effect of Cx43-based penetrating peptides on the migration of human glioblastoma stem cells. G166 human glioblastoma stem cells were treated in the absence (control) or presence of TAT-Cx43266-283 or TAT-Cx43266-275, both at a concentration of 50 μM. Phase-contrast videos of the cells were made using a live cell microscope. Shown are 3 representative frames taken every 100 minutes of the cells in the control condition, TAT-Cx43266-283 and TAT-Cx43266-275. 3 cells in each condition have been selected and numbered.
# Migration is the cause of these tumour cells invading the surrounding parenchyma, escaping surgery and causing the recurrence of these tumours, which is the main cause of mortality.
# Csk = target: T1, Csk (Homo sapiens, UniProt P41240); assay: Pull-down of biotinylated peptides with NeutrAvidin beads, Western blot; format: binding; details: 50 μM biotinylated peptide, 30 min, E22 glioblastoma stem cells, FIG. 9
# T1 construct: endogenous in cells; host or cells: human E22 glioblastoma stem cells
# Experimental: (§2) FIG. 9. Intracellular interactions of biotinylated TAT-Cx43266-283, TAT-Cx43266-283C/A and TAT-Cx43266-275 in human glioblastoma stem cells. Human E22 glioblastoma stem cells were incubated with 50 μM biotinylated TAT-Cx43266-283, TAT-Cx43266-283C/A and TAT-Cx43266-275. After 30 min the cells were lysed and biotinylated peptides attached to their intracellular partners were pulled down with NeutrAvidin beads. The eluted proteins were loaded and analyzed by Western blot to study the levels of c-Src, Y416-Src, and Csk.
# (§3) Pulldown experiments were performed as described in González-Sánchez A. et al., Oncotarget, 7(31):49819-49833 (2016); Jaraiz-Rodriguez M. et al., J Vis Exp. (130):56457 (2017)). Confluent cells grown in 25 cm^2 flasks were incubated with 50 μM biotinylated peptides for 30 min. Proteins were then collected in 0.5 ml of lysis buffer (20 mM Tris-HCl (pH 8.0), 137 mM NaCl, 1% IGEPAL, 1 mM PMSF, protease cocktail (1:100; Cocktail Ill, Calbiochem), 1 mM NaF and 0.1 mM Na3VO4). Lysates were centrifuged at 11000×g for 10 minutes at 4° C., and the supernatants were recovered. A 50-μl aliquot of each lysate was used to analyze the protein content, and the remaining lysate was incubated with NeutrAvidin-Agarose (Thermo Scientific, Rockford, IL, USA; Ref. 29200) for 12 h at 4° C. with gentle shaking. The avidin beads bound with the peptides were collected by centrifugation (3000×g for 1 minutes at 4° C.). The beads were then washed five times with lysis buffer, and the bound proteins were eluted and analyzed by Western blotting under denaturing and reducing contidions. The membranes were blocked with 5% non-fat dry milk in PBS-T and then incubated overnight at 4° C. with the primary antibodies against rabbit CSK (1:250; Cell Signaling Technology, Ref. 4980), rabbit Y416 Src (1:250, Cell Signaling Technology, Ref. 2101) and mouse total c-Src (1:500, Cell Signaling Technology, Ref. 2110). To detect biotinylated peptides, the membranes were incubated with HRP-conjugated streptavidin in PBS (1:5000; Dako Ref.P0397) for 30 minutes and then developed with a chemiluminescent substrate.
# Y416-Src = target: T2, Y416-Src (Homo sapiens, UniProt P12931); assay: as above; format: binding; details: 50 μM biotinylated peptide, 30 min, E22 glioblastoma stem cells, FIG. 9
# T2 construct: endogenous in cells; host or cells: human E22 glioblastoma stem cells
# Experimental: as §2, §3
# c-Src [4] = target: T3, c-Src (Homo sapiens, UniProt P12931); details: from cited publications; cited from earlier work
# [5] = test system: human and mouse glioblastoma stem cells; details: in vitro and in vivo, from cited publications; cited from earlier work
# c-Src [6] = target: T3, c-Src; assay: Pull-down of biotinylated peptides with NeutrAvidin beads, Western blot; format: binding; design: the cells were lysed and biotinylated peptides attached to their intracellular partners were pulled down with NeutrAvidin beads; endogenous in cells; host or cells: human E22 glioblastoma stem cells; details: 50 μM biotinylated peptide, 30 min, E22 glioblastoma stem cells, FIG. 9
# Experimental: as §2
# as §3, with “To detect biotinylated peptides, the membranes were incubated with HRP-conjugated streptavidin in PBS (1:5000; Dako Ref.P0397) for 30 minutes and then developed with a chemiluminescent substrate.” left out
# T1 sequence (P41240 whole entry): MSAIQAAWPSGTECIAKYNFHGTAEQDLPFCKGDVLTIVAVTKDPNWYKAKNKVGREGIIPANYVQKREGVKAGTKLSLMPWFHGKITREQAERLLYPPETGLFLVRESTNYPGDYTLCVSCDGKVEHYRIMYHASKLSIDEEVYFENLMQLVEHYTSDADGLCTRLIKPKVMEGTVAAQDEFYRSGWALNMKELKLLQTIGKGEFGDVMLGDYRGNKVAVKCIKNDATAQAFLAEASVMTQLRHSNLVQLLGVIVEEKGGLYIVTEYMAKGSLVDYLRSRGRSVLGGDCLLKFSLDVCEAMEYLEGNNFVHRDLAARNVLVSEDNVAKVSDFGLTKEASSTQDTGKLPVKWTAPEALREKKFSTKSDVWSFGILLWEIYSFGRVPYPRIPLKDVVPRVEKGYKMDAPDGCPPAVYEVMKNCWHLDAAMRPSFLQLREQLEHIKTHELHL
sequence,measurement,setting,value
YGRKKRRQRRRAYFNGCSSPTAPLSPM [TAT-Cx43266-281],proliferation and survival of human glioblastoma stem cells,[1],reduce proliferation and survival
same,internalisation in human glioblastoma stem cells,[2],able to be internalised
"YGRKKRRQRRR (Cell internalisation sequence) [TAT, reference compound]",proliferation and survival of human glioblastoma stem cells,[1],do not produce significant effects
"YGRKKRRQRRR PTAPLSPMSPPGYKLVTG (YGRKKRRQRRRPTAPLSPMSPPGYKLVTG) [TAT-Cx43274-291, reference compound]",proliferation and survival of human glioblastoma stem cells,[1],do not produce significant effects
YGRKKRRQRRRFNGCSSPTAPLSPMSP [TAT-Cx43268-283],ability to reduce proliferation (MTT assay),"[1]; 72h, FIG. 3",less ability to reduce proliferation than TAT-Cx43266-283
YGRKKRRQRRRAYFNGCSSPTAP [TAT-Cx43266-277],proliferation and survival of human glioblastoma stem cells,[1],reduce proliferation and survival
same,internalisation in human glioblastoma stem cells,[2],able to be internalised
YGRKKRRQRRRAYANGCSSPTAPLSPMSP [TAT-Cx43266-283 F/A],tumour cell morphology and viability (MTT assay),"[1]; 48h, FIG. 4","affects tumour cell morphology and viability, but to a much lesser extent"
same,binding to albumin,albumin,did not affect the interaction with albumin
YGRKKRRQRRRAYFNGCSSPTAPLS [TAT-Cx43266-279],proliferation and survival of human glioblastoma stem cells,[1],reduce proliferation and survival
same,internalisation in human glioblastoma stem cells,[2],able to be internalised
"YGRKKRRQRRRAYFNGCSSPTAPLSPMSP [TAT-Cx43266-283, reference compound]",morphology and viability of glioblastoma stem cells (MTT assay),[1]; 48h,significantly reduces the viability
same,proliferation and survival of human glioblastoma stem cells,[1],reduce proliferation and survival
same,internalisation in human glioblastoma stem cells,[2],able to be internalised
same,migration of human glioblastoma stem cells,[3],reduces the migration
same,binding to albumin,albumin,bind to albumin under native conditions
same,intracellular interaction with Csk,Csk,interact preferentially
same,intracellular interaction with Y416-Src,Y416-Src,interact preferentially
same,c-Src activity,c-Src [4],inhibit c-Src activity
same,antitumour effect,[5],potent antitumour effect
same,intracellular interaction with c-Src,c-Src [6],interact preferentially
YGRKKRRQRRRAYFNGCSSPT [TAT-Cx43266-275],anti-tumour effect compared with the other peptides (MTT assay),"[1]; 0-72h, FIG. 6",significantly higher than the rest of the peptides
same,proliferation and survival of human glioblastoma stem cells,[1],reduce proliferation and survival
same,internalisation in human glioblastoma stem cells,[2],able to be internalised
same,migration of human glioblastoma stem cells,[3],reduces the migration
same,binding to albumin,albumin,bind to albumin under native conditions
same,intracellular interaction with Csk,Csk,interact preferentially
same,intracellular interaction with Y416-Src,Y416-Src,interact preferentially
same,intracellular interaction with c-Src,c-Src [6],interact preferentially
YGRKKRRQRRRCSSPTAPLSPMSPPGYK [TAT-Cx43271-287],glioblastoma stem cell survival and proliferation (MTT assay),"[1]; 72h, FIG. 2",slightly reduces glioblastoma stem cell proliferation
YGRKKRRQRRRAYFNGASSPTAPLSPMSP [TAT-Cx43266-283 C/A],morphology and viability of glioblastoma stem cells (MTT assay),[1]; 48h,very similar to that of untreated (control) cells
same,binding to albumin,albumin,disrupted albumin-peptide interaction
same,intracellular interaction with Csk,Csk,did not show significant interactions
same,intracellular interaction with Y416-Src,Y416-Src,did not show significant interactions
same,intracellular interaction with c-Src,c-Src [6],did not show significant interactions

# Source: patent publication US20250101077A1, “PEPTIDES AND PHARMACEUTICAL COMPOSITION FOR THE TREATMENT OF TUMOURS” (UNIVERSIDAD DE SALAMANCA, priority 2022, published 2025)
